pIC50, pKd: −log10 of the molar value.
Assays:
[1] = Pharmacokinetic study in mice; details: mouse, in vivo, po
[2] = test system: RWPE-1 Normal Prostate Cells; experiment: CellTiter-Glo 2D cell viability assay in normal prostate cells; type: cell-based; details: Homo sapiens; RWPE-1 normal prostate cells, 72 hours
Protocol: Multiplexing the LDH-Glo Cytotoxicity Assay and CellTiter-Glo 2D Cell Viability Assay. […] Change in toxicity was measured using the LDH-Glo Cytotoxicity Assay by combining 50 μL diluted samples with 50 μL LDH Detection Reagent and recording luminescence after 1 hour incubation. After samples were removed for LDH measurement, an equal volume of CellTiter Glo 2D Reagent was added to the remaining cell suspension and luminescence was recorded after 30-minute incubation period.

[3] = target: CDK3/cyclinE (Homo sapiens, UniProt Q00526); experiment: CDK family kinase profiling, radioisotope-based assay (33P); type: biochemical; parameters: purchased Reaction Biology; details: read-out: 10-dose IC50
Chain of CDK3/cyclinE (Q00526 whole entry): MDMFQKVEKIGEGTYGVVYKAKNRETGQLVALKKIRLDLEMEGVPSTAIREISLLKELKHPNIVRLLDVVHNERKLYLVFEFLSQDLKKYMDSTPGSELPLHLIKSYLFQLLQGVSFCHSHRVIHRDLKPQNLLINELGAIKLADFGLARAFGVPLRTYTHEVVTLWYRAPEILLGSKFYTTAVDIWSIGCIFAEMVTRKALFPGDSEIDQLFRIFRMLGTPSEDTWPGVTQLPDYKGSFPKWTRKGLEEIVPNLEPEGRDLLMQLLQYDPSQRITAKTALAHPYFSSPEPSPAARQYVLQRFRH
Chain of CDK3/cyclinE (P24864 whole entry partner): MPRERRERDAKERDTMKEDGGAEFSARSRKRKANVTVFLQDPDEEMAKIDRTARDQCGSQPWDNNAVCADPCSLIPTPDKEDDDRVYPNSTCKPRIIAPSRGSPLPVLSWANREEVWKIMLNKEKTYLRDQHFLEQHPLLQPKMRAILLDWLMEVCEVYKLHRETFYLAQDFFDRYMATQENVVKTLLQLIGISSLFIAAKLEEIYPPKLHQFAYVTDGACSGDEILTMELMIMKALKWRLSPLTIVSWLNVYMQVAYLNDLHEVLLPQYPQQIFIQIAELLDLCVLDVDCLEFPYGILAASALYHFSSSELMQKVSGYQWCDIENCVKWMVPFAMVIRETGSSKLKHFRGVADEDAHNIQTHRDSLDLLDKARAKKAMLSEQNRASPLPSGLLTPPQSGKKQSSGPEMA
Protocol: (§1) CDKs family kinases profiling assays were performed with DiscoveRx Matrix of Kds KINOMEscan (KdELECT) and Reaction Biology using miniaturized radioisotope-based assay platform (^33P). IC50 value estimated based on the best curve fitting available.

[4] = target: CDK2/cyclinA (Homo sapiens, UniProt P24941); experiment: as above; type: biochemical; parameters: purchased Reaction Biology; details: read-out: 10-dose IC50
Protocol: as §1

[5] = target: TAOK3 (Homo sapiens, UniProt Q9H2K8); experiment: scanMAX panel and Kd follow-up; type: binding
Chain of TAOK3 (Q9H2K8 whole entry): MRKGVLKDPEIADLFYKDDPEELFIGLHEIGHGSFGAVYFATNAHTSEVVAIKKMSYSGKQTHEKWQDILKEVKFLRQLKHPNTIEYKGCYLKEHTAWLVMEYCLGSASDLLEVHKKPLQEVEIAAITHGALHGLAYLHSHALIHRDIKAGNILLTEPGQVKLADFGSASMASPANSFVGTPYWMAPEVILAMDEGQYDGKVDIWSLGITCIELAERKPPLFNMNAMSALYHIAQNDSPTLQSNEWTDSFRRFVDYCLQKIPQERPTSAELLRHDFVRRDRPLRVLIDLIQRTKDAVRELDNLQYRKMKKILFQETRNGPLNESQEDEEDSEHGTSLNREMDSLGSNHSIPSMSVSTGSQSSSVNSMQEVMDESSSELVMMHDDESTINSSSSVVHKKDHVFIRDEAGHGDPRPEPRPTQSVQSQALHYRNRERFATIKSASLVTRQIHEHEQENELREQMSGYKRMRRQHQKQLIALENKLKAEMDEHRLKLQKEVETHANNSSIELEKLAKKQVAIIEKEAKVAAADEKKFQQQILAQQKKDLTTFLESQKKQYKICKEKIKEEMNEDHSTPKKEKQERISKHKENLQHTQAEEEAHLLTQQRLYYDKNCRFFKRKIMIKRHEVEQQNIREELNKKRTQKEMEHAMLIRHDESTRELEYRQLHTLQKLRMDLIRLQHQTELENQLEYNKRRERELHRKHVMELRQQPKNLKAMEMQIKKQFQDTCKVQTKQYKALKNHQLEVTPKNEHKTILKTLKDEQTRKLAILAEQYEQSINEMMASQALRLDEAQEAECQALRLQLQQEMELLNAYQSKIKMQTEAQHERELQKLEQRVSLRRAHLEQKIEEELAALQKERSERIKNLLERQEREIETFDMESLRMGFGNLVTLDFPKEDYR

[6] = test system: C4-2; experiment: 2D CellTiter-Glo cell viability assay; type: cell-based, human
Protocol: (§2) CellTiter-Glo® 2.0 Luminescent cell viability assay reagent was purchased from Promega and 22Rv1, LASCPC-01, C4-2, C4-2B and NCI-H660, DU-145, PC-3 and LNCap cell lines were obtained from ATCC and a clinical core facility at Huntsman Cancer Institute. […] The results of cell viability were obtained and IC50 values were calculated (see Table 5, below) showing sub-micromolar cell killing of these prostate cancer cells.

[7] = target: CDK9 + Cyclin T1 (Homo sapiens, UniProt P50750); experiment: cell-based
[8] = test system: LASCPC-01 induced neuroendocrine prostate cancer (NEPC) CDX; experiment: In vivo tumor efficacy study 2, LASCPC-01 NEPC CDX; parameters: species or system Nu/Nu (Balb/c background) mice
Protocol: Change in animal weight during a study is an additional indicator of tolerability. All animal weights are recorded. Tumor volumes were measured by digital caliper and volume was calculated using the formula [Width^2×Length]/2. All tumor volume measurements are recorded. […] Dose dependent tumor growth inhibition (TGI) was evident by observation.
50 and 80 mg/kg groups had mice drop from study starting on day 5.

[9] = test system: C4-2B; experiment: 2D CellTiter-Glo cell viability assay; type: cell-based
Protocol: as §2

[10] = test system: 22RV1 induced neuroendocrine prostate cancer (NEPC) CDX; experiment: In vivo tumor efficacy study, 22Rv1 NEPC CDX
Protocol: 22Rv1 cells were cultured in RPMI supplemented with 10% FBS and 1% P/S, in a humidified incubator at 37° C. and 5% CO2. Nu/nu Balb/c homozygous mice were procured through Jackson laboratory (Strain 002019). Mice were fed Teklad irradiated (sterilized) mouse diet and bedded with Teklad irradiated (sterilized) corncob bedding from Envigo (Indianapolis, IN). Mice were housed in Optimice carousel sterile quarters with filtered air supply in disposable cages from Animal Care Systems, Inc. (Centennial, CO). A 12-hour light/12-hour dark light cycle is observed, with animal handling only taking place during the light cycle.
22Rv1 Implantation: On the day of implantation, cells were trypsinized and allowed to detach from flasks. Trypsin was then neutralized with complete media and cells were spun at 300×g. Media was aspirated and cells were re-suspended in 50:50 Cultrex RPMI (no supplementation) at a concentration of 5×10^7 cells/mL. A volume of 100 μL was injected into the right hind flank of each animal (a total of 5×10^6 cells per mouse). Cells were checked for viability using trypan blue exclusion and found to be >98% viable.
• All mice were dosed orally, and the observation duration was 21 days […]
Tumor volumes: Tumor volumes were measured by digital caliper, and volume was calculated using the formula [Width^2×Length]/2. All tumor volume measurements are recorded. […]

[11] = target: Haspin (Homo sapiens, UniProt Q8TF76); experiment: scanMAX panel and Kd follow-up; type: binding
Chain of Haspin (Q8TF76 whole entry): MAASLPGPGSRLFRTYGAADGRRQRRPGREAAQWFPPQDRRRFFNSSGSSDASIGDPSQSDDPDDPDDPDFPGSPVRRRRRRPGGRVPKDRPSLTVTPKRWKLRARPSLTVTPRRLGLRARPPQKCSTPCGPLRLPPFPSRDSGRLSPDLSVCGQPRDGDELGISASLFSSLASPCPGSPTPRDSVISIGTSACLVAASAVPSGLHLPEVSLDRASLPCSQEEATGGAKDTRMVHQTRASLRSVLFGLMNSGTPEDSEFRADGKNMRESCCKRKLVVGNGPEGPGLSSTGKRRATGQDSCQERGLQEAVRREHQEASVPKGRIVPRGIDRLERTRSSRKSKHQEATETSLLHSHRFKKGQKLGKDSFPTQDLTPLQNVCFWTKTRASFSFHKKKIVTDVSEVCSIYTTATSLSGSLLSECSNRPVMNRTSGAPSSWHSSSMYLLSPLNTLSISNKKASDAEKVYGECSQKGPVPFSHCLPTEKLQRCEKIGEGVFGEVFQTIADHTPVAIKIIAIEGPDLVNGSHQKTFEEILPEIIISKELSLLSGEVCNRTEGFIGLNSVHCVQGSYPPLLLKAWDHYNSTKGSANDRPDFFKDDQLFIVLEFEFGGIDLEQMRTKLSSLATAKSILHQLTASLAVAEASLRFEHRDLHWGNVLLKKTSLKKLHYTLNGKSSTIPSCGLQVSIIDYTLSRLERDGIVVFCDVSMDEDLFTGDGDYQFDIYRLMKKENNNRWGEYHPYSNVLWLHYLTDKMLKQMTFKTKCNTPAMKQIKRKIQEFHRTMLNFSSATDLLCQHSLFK

[12] = target: CDK9 (Homo sapiens, UniProt P50750); experiment: DiscoveRx KINOMEscan (KdELECT, scanMAX panel); type: binding
Chain of CDK9 (P50750 whole entry): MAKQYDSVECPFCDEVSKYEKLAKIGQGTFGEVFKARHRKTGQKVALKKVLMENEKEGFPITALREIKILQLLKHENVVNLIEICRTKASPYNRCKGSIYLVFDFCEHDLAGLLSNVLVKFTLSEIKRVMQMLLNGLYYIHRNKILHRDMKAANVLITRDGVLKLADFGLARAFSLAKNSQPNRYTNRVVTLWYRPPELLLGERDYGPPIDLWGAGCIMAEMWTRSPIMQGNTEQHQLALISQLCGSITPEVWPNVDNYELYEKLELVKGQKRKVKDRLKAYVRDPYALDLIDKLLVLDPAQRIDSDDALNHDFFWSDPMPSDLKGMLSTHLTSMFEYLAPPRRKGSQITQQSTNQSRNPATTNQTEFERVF
Protocol: as §1

[13] = target: TAOK1 (Homo sapiens, UniProt Q7L7X3); experiment: scanMAX panel and Kd follow-up; type: binding
Chain of TAOK1 (Q7L7X3 whole entry): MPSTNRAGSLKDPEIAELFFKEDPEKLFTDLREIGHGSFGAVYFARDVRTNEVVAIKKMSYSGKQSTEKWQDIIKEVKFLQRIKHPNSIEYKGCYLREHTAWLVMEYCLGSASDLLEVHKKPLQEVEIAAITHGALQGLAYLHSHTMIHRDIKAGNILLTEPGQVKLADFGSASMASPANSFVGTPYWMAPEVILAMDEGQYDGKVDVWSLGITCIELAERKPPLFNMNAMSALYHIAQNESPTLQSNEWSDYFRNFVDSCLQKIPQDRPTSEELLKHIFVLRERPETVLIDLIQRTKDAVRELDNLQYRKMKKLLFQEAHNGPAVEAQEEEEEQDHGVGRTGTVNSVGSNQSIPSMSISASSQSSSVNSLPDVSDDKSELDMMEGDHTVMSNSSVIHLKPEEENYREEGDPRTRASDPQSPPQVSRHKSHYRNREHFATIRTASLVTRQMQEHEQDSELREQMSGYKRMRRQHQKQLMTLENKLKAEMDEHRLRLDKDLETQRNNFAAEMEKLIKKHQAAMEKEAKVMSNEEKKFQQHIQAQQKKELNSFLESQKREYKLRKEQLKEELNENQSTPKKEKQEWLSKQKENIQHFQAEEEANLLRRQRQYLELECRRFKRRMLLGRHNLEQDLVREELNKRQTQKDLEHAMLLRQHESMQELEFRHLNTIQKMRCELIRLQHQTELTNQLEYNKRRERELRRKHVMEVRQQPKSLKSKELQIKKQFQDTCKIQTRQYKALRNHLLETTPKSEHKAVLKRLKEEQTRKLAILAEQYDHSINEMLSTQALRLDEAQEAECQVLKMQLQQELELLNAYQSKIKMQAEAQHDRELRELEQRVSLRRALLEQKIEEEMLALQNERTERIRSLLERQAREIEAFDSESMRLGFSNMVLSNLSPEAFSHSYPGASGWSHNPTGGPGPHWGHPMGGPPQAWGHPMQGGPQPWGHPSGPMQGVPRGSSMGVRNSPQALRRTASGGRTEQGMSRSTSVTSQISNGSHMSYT

[14] = target: T1, human P450 isozyme 2D6 (Homo sapiens, UniProt P10635); experiment: P450 isozyme inhibition assay (baculosomes); type: in vitro ADME; details: P450 2D6
T1 construct: made in house; host or cells: insect cells infected with recombinant baculovirus
Protocol: (§3) P450 baculosome reagents (i.e., microsomes), were prepared from insect cells infected with recombinant baculovirus containing a human P450 isozyme and a rabbit NAPDH-P450 reductase since only a single P450 isozyme is expressed over human liver microsomes (HLM).

[15] = target: T2, human P450 isozyme 2C19 (Homo sapiens, UniProt P33261); experiment: P450 isozyme inhibition assay (baculosomes); type: in vitro ADME; details: P450 2C19
T2 construct: host or cells: insect cells infected with recombinant baculovirus
Protocol: as §3

[16] = target: T3, human P450 isozyme 2C9 (Homo sapiens, UniProt P11712); experiment: P450 isozyme inhibition assay (baculosomes); type: in vitro ADME; details: P450 2C9
T3 construct: host or cells: insect cells infected with recombinant baculovirus
Protocol: as §3

[17] = target: T4, human P450 isozyme 1A2 (Homo sapiens, UniProt P05177); experiment: P450 isozyme inhibition assay (baculosomes); type: in vitro ADME; details: P450 1A2
T4 construct: host or cells: insect cells infected with recombinant baculovirus
T4 sequence (P05177 whole entry): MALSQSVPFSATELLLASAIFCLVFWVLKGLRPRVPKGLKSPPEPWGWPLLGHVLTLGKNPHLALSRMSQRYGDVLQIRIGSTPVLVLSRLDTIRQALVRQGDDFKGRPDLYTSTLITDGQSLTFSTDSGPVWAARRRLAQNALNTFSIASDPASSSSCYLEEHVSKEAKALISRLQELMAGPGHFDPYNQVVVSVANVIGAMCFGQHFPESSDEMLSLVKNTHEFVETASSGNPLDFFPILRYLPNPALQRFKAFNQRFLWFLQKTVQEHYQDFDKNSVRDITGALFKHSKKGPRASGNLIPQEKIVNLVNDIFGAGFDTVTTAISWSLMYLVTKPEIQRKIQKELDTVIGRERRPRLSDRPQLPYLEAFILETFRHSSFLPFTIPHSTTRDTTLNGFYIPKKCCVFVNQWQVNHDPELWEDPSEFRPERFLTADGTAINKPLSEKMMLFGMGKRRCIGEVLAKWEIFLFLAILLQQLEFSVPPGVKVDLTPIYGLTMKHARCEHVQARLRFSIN
Protocol: as §3

[18] = target: T5, human P450 isozyme 3A4 (Homo sapiens, UniProt P08684); experiment: P450 isozyme inhibition assay (baculosomes); type: in vitro ADME; details: P450 3A4
T5 construct: made in house; host or cells: insect cells infected with recombinant baculovirus
T5 sequence (P08684 whole entry): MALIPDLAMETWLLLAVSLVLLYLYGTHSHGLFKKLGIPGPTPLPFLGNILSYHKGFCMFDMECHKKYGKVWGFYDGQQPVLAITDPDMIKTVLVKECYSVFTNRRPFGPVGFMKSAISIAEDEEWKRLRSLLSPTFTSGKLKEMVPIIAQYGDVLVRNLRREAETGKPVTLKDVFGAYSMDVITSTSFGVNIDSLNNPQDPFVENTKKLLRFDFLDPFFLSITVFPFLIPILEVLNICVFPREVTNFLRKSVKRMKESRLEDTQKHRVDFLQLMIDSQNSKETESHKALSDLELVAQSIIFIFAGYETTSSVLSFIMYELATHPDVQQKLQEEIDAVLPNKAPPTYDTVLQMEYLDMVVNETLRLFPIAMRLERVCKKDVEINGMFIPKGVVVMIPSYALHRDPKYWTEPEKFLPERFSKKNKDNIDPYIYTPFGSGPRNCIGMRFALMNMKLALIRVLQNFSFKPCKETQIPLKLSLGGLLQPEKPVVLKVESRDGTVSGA
Protocol: as §3

CC(C)c1c2cc(-c3ccnc(N[C@H]4CC[C@H](N)C4)n3)ccc2nn1C [Compound I-2, (1S,3S)-[3-[4-(3-isopropyl-2-methylindazol-5-yl)pyrimidin-2-yl]aminocyclopentan-1-yl]-1,3-diamine]
bioavailability [1]: 28% | pIC50 [2]: 5.28 | pIC50 [3]: 6.94 | pIC50 [4]: 7.75 | pKd ([5]; TAOK3): 8.04 | remaining binding at 1 µM ([5]; TAOK3, 1 μM, read-out: % of control activity): 0 to 1% | pIC50 ([6]; C4-2, 72 hours): 7.55 | pIC50 ([6]; Homo sapiens, C4-2, 72 h): 7.55 | pIC50 [7]: 7.81 | tumor growth inhibition throughout the course of the study ([8]; LASCPC-01, 50 mg/kg group): > 80% | maximal tumor growth inhibition ([8]; LASCPC-01, 50 mg/kg group, early in the study): ~100% | maximal growth inhibition ([8]; LASCPC-01, 80 mg/kg group, day 5): 117% | tumor growth ([8]; LASCPC-01, 30, 50, 65, 80 mg/kg): inhibit tumor growth in a dose dependent manner | pIC50 ([9]; 72 h): 7.51 | pIC50 ([9]; 72 hours): 7.50 | tumor growth ([10]; 22Rv1, 30, 50, 65 mg/kg orally once daily, 21 days): inhibit tumor growth in a dose dependent manner | tolerability ([10]; 22Rv1 study, >50 mg/kg dosing levels): Tolerability issues | pKd [11]: 8.55 | remaining binding at 1 µM ([11]; 1 μM, read-out: % of control activity): 0 to 1% | activity in scanMAX panel ([12]; CDK9, 1 μM): 2.7% | pKd ([12]; CDK9/cyclinT): 8.38 | pKd ([13]; TAOK1): 7.72 | remaining binding at 1 µM ([13]; TAOK1, 1 μM, read-out: % of control activity): 0 to 1% | pIC50 [14]: 4.00 | pIC50 [15]: 4.55 | pIC50 [16]: 4.29 | pIC50 [17]: 4.53 | pIC50 [18]: 4.51
